The values that follow are results of earlier work, collected in patent US5919783A, “Indoline and azaindoline derivatives as 5-HT1D alpha receptor agonists” (Merck Sharp & Dohme Ltd., priority 1994, dated 1999).

Molecules are shown by their SMILES.

The subject of data set [1] is human 5-HT1Dα and 5-HT1Dβ receptor subtypes. Particulars: cf. WO-A-91/17174, Table 1.
The conditions of data set [2]: therapeutic doses.

In the case of `CNS(=O)(=O)Cc1ccc2[nH]cc(CCN(C)C)c2c1` [sumatriptan], the “discrimination between human 5-HT1Dα and 5-HT1Dβ receptor subtypes (in words)” value in data set [1] is “barely discriminates”. Further, in data set [2], the “adverse events in humans” value is listed as “adverse cardiovascular events”.
